# Measured values taken from patent US5134137A, “Cephalosporin antibiotics” (The Upjohn Company, priority 1990, dated 1992).
# Read-outs that look alike come from different tables or passages of the source.
# Columns and labels:
# Format in all cases: cell-based
# Salmonella typhimurium = test: MIC, agar dilution, Salmonella typhimurium; conditions: Salmonella enterica, read-out: MIC
# Method: (§1) Stock solution of each test antibiotic compound were prepared to have a concentration of 2 mg. of the test compound per milliliter in sterile water of 0.1M ammonium acetate solution. The amount of each compound used was adjusted for base compound activity as calculated from the purity data for the selected batch of compound.
# (§2) The dilution procedure described by Washington and Sutter [Manual of Clinical Microbiology, 3rd, Edit. (Lennett, E. H. et al, Eds.), pp. 453-458 (1980), American Society for Microbiology, Washington, D.C.] was modified so that serial concentrations of 128 to 0.0625 microgram/ml. in sterile water was obtained. Then 1.5 ml. aliquots of these test antibiotic dilution mixtures are added to 13.5 molten (50° C.) Mueller-Hinton agar. Each resulting mixture is poured into 15×100 mm, sterile Petri plates and allowed to dry at room temperature overnight.
# (§3) Test bacterial cultures are maintained at -70° C. on glass beads. [See R. J. Yancey, Jr. et al, Amer. Jr. of Vet. Research, 48, No. 7, pp. 1050-1053, (1987)]. At least one bacteria-laden bead per culture is dropped into one ml. of brain heart infusion (BHI) broth for overnight culture at 37° C. in 5% V/V carbon dioxide in air atmosphere.
# (§4) On the data of assay, 2 to 8 drops of the bacterial broth cultures are transferred to fresh BHI broth (1 ml.) and the mixture is incubated for 4 to 6 hours at 37° C. in a 5% V/V carbon dioxide in air atmosphere. The resulting cultures are then diluted to match a 0.5 MacFarland standard and further diluted 1:20 V/V with sterile saline solution.
# (§5) A 0.001 ml. drop of the resulting mixture, containing approximately 10^3 to 10^4 colony forming units (CFU) of each test bacteria organism, is dispensed onto the surface of the test antibiotic compound test plates with a Steer's type replicator. The resulting innoculated plates are incubated 16 to 18 hours at 37° C. with a carbon dioxide atmosphere.
# as §1, with “Stock solutions” for “Stock solution”
# as §2, with “mm.” for “mm,”
# as §2, with “for Microbiology.” for “for Microbiology,”, “15×100 mm.” for “15×100 mm,”
# as §3, with “culture” for “cultures”
# (§6) On the day of assay, 2 to 8 drops of the bacterial broth cultures are transferred to fresh BHI broth (1 ml.) and the mixture is incubated for 4 to 6 hours at 37° C. in a 5% V/V carbon dioxide in air atmosphere. […]
# Salmonella choleraesuis = test: MIC, agar dilution, Salmonella choleraesuis; conditions: Salmonella enterica, read-out: MIC
# Method: as §1, §2, §3, §4, §5
# as §1, with “Stock solutions” for “Stock solution”
# as §2, with “mm.” for “mm,”
# as §2, with “for Microbiology.” for “for Microbiology,”, “15×100 mm.” for “15×100 mm,”
# as §3, with “culture” for “cultures”
# as §6
# [1] = system: Bordetella bronchiseptica; test: MIC, agar dilution, Bordetella bronchiseptica; conditions: Bordetella bronchiseptica; strain UC6313; read-out: MIC
# Method: as §1, §2, §3, §4, §5
# as §1, with “Stock solutions” for “Stock solution”
# as §2, with “mm.” for “mm,”
# as §2, with “for Microbiology.” for “for Microbiology,”, “15×100 mm.” for “15×100 mm,”
# as §3, with “culture” for “cultures”
# as §6
# Pasteurella hemolytica = test: MIC (minimum inhibitory concentration), agar dilution, Pasteurella hemolytica; conditions: Pasteurella, read-out: MIC
# Method: as §1, §2, §3, §4, §5
# as §1, with “Stock solutions” for “Stock solution”
# as §2, with “mm.” for “mm,”
# as §2, with “for Microbiology.” for “for Microbiology,”, “15×100 mm.” for “15×100 mm,”
# as §3, with “culture” for “cultures”
# as §6
# Pseudomonas aeruginosa = test: MIC, agar dilution, Pseudomonas aeruginosa; conditions: Pseudomonas aeruginosa, ATCC27853; strain ATCC 27853; read-out: MIC
# Method: as §1, §2, §3, §4, §5
# as §1, with “Stock solutions” for “Stock solution”
# as §2, with “mm.” for “mm,”
# as §2, with “for Microbiology.” for “for Microbiology,”, “15×100 mm.” for “15×100 mm,”
# as §3, with “culture” for “cultures”
# as §6
# Enterococcus faecium = test: MIC, agar dilution, Enterococcus faecium; conditions: Enterococcus faecium; strain UC241; read-out: MIC
# Method: as §1, with “Stock solutions” for “Stock solution”
# as §2, §3, §4, §5, §1
# as §2, with “mm.” for “mm,”
# as §2, with “for Microbiology.” for “for Microbiology,”, “15×100 mm.” for “15×100 mm,”
# as §3, with “culture” for “cultures”
# as §6
# Enterococcus faecalis = test: MIC, agar dilution, Enterococcus faecalis; conditions: Enterococcus faecalis; strain UC694; read-out: MIC
# Method: as §1, with “Stock solutions” for “Stock solution”
# as §2, §3, §4, §5, §1
# as §2, with “mm.” for “mm,”
# as §2, with “for Microbiology.” for “for Microbiology,”, “15×100 mm.” for “15×100 mm,”
# as §3, with “culture” for “cultures”
# as §6
# Micrococcus luteus = test: MIC, agar dilution, Micrococcus luteus; conditions: Micrococcus luteus; strain UC130; read-out: MIC
# Method: as §1, §2, §3, §4, §5
# as §1, with “Stock solutions” for “Stock solution”
# as §2, with “mm.” for “mm,”
# as §2, with “for Microbiology.” for “for Microbiology,”, “15×100 mm.” for “15×100 mm,”
# as §3, with “culture” for “cultures”
# as §6
# [2] = system: Streptococcus dysgalactiae; test: MIC, agar dilution, Streptococcus dysgalactiae; conditions: Streptococcus dysgalactiae; strain UC251; read-out: MIC
# Method: as §1, §2, §3, §4, §5
# as §1, with “Stock solutions” for “Stock solution”
# as §2, with “mm.” for “mm,”
# as §2, with “for Microbiology.” for “for Microbiology,”, “15×100 mm.” for “15×100 mm,”
# as §3, with “culture” for “cultures”
# as §6
# Staphylococcus aureus = test: MIC, agar dilution, Staphylococcus aureus; conditions: Staphylococcus aureus, read-out: MIC
# Method: as §1, §2, §3, §4, §5
# as §1, with “Stock solutions” for “Stock solution”
# as §2, with “mm.” for “mm,”
# as §2, with “for Microbiology.” for “for Microbiology,”, “15×100 mm.” for “15×100 mm,”
# as §3, with “culture” for “cultures”
# as §6
# Streptococcus agalactiae = test: MIC, agar dilution, Streptococcus agalactiae; conditions: Streptococcus agalactiae, read-out: MIC
# Method: as §1, §2, §3, §4, §5
# as §1, with “Stock solutions” for “Stock solution”
# as §2, with “mm.” for “mm,”
# as §2, with “for Microbiology.” for “for Microbiology,”, “15×100 mm.” for “15×100 mm,”
# as §3, with “culture” for “cultures”
# as §6
# Pasteurella multocida = test: MIC, agar dilution, Pasteurella multocida; conditions: Pasteurella multocida; strain UC9581; read-out: MIC
# Method: as §1, §2, §3, §4, §5
# as §1, with “Stock solutions” for “Stock solution”
# as §2, with “mm.” for “mm,”
# as §2, with “for Microbiology.” for “for Microbiology,”, “15×100 mm.” for “15×100 mm,”
# as §3, with “culture” for “cultures”
# as §6
# Corynebacterium pyogenes = test: MIC, agar dilution, Corynebacterium pyogenes; conditions: strain 213-2; read-out: MIC
# Method: as §1, §2, §3, §4, §5
# as §1, with “Stock solutions” for “Stock solution”
# as §2, with “mm.” for “mm,”
# as §2, with “for Microbiology.” for “for Microbiology,”, “15×100 mm.” for “15×100 mm,”
# as §3, with “culture” for “cultures”
# as §6
# Streptococcus uberis = test: MIC, agar dilution, Streptococcus uberis; conditions: Streptococcus uberis, read-out: MIC
# Method: as §1, §2, §3, §4, §5
# as §1, with “Stock solutions” for “Stock solution”
# as §2, with “mm.” for “mm,”
# as §2, with “for Microbiology.” for “for Microbiology,”, “15×100 mm.” for “15×100 mm,”
# as §3, with “culture” for “cultures”
# as §6
# Escherichia coli = test: MIC, agar dilution, Escherichia coli; conditions: Escherichia coli, read-out: MIC
# Method: as §1, §2, §3, §4, §5
# as §1, with “Stock solutions” for “Stock solution”
# as §2, with “mm.” for “mm,”
# as §2, with “for Microbiology.” for “for Microbiology,”, “15×100 mm.” for “15×100 mm,”
# as §3, with “culture” for “cultures”
# as §6
# Streptococcus suis = test: MIC, agar dilution, Streptococcus suis; conditions: Streptococcus suis; strain 650-2; read-out: MIC
# Method: as §1, §2, §3, §4, §5
# as §1, with “Stock solutions” for “Stock solution”
# as §2, with “mm.” for “mm,”
# as §2, with “for Microbiology.” for “for Microbiology,”, “15×100 mm.” for “15×100 mm,”
# as §3, with “culture” for “cultures”
# as §6
# Streptococcus bovis = test: MIC, agar dilution, Streptococcus bovis; conditions: Streptococcus equinus; strain UC6281; read-out: MIC
# Method: as §1, §2, §3, §4, §5
# as §1, with “Stock solutions” for “Stock solution”
# as §2, with “mm.” for “mm,”
# as §2, with “for Microbiology.” for “for Microbiology,”, “15×100 mm.” for “15×100 mm,”
# as §3, with “culture” for “cultures”
# as §6
# [3] = TYPHIMURIUM / UC6162, strain UC6162
# [4] = TYPHIMURIUM / UC6164, strain UC6164
# [5] = CHOLERAESUIS / UC6073, strain UC6073
# [6] = CHOLERAESUIS / UC6077, strain UC6077
MIC (Salmonella typhimurium; [3]) [µg/mL],MIC (Salmonella typhimurium; [4]) [µg/mL],MIC [1] [µg/mL],MIC (Pseudomonas aeruginosa) [µg/mL],MIC (Enterococcus faecium) [µg/mL],MIC (Enterococcus faecalis) [µg/mL],MIC (Micrococcus luteus) [µg/mL],MIC [2] [µg/mL],MIC (Staphylococcus aureus; strain UC6093) [µg/mL],MIC (Staphylococcus aureus; strain UC6097) [µg/mL],MIC (Staphylococcus aureus; strain UC9203) [µg/mL],MIC (Streptococcus agalactiae; strain UC3947) [µg/mL],MIC (Streptococcus agalactiae; strain UC6892) [µg/mL],MIC (Pasteurella multocida) [µg/mL],MIC (Corynebacterium pyogenes) [µg/mL],Compound,MIC (Salmonella choleraesuis; [5]) [µg/mL],MIC (Salmonella choleraesuis; [6]) [µg/mL],MIC (Pasteurella hemolytica; strain UC6531) [µg/mL],MIC (Pasteurella hemolytica; strain UC6532) [µg/mL],MIC (Pasteurella hemolytica; strain UC9582) [µg/mL],also measured
16,32,32,> 32,> 32,> 32,0.5,≤ 0.06,8,8,8,2,> 32,32,> 32,CCCSSCC1=C(C(=O)O)N2C(=O)[C@@H](NC(=O)/C(=N\OC)c3csc(N)n3)[C@H]2SC1 [Example 11],32,> 32,0.5,0.5,0.5,MIC (Streptococcus uberis; strain UC3946): 0.25 µg/mL; MIC (Streptococcus uberis; strain UC6159): 16 µg/mL; MIC (Escherichia coli; strain UC3784): 16 µg/mL; MIC (Escherichia coli; strain UC6720): 32 µg/mL; MIC (Escherichia coli; strain UC9670): 16 µg/mL; MIC (Streptococcus suis): ≤ 0.06 µg/mL; MIC (Streptococcus bovis): > 32 µg/mL
16,32,> 32,> 32,> 32,> 32,≤ 0.06,≤ 0.06,4,4,4,2,> 32,8,32,CCCCSSCC1=C(C(=O)O)N2C(=O)[C@@H](NC(=O)/C(=N\OC)c3csc(N)n3)[C@H]2SC1 [Example 12],32,32,0.5,0.5,0.5,MIC (Streptococcus uberis; strain UC3946): 0.13 µg/mL; MIC (Streptococcus uberis; strain UC6159): 8 µg/mL; MIC (Escherichia coli; strain UC3784): 8 µg/mL; MIC (Escherichia coli; strain UC6720): 16 µg/mL; MIC (Escherichia coli; strain UC9670): 8 µg/mL; MIC (Streptococcus suis): ≤ 0.06 µg/mL; MIC (Streptococcus bovis): > 32 µg/mL
